Series [1] is described as follows: Oral pharmacokinetic study in rat, LC/MS assay in plasma (Examples 21-24). Format: in vivo. The following applies: in vivo, po, 50 mg/kg. As for the experimental part:
The following study is an LC/MS assay in plasma of the various molecules over 3 days (11 measurement points in the end). The graphs are always presented in comparison with DX101 which is the reference.
Plasma sampling at 0 (without injection), 5, 10, 15, 30 min, 1 h, 4 h, 8 h, 24 h, 48 h, 72 h (11 points)

Series [2] deals with murine 4T1 mammary tumor cells. In words: Cell viability of 4T1 cells, MTT. Format: cell-based. As to conditions: for IC50: Mus musculus, 4T1, MTT, 48 h; for cytotoxic activity compared with DX101: 4T1, Tables 1a, 1b and 1c (MTT, LDH, Green Cytotoxicity Assay). As for the experimental part: (§1) Cell viability tests were performed on murine 4T1 mammary tumor cells characterized as triple negative (HER2-, ER-, PR-).
(§2) For this experiment, a cell culture medium was prepared. The culture medium consisted of Dulbecco's Modified Eagle Medium (DMEM, sold by Westburg as LO BE12-604F), comprising 4.5 g/L glucose with L-glutamine, to which 10% fetal calf serum (FCS) and 50 U/ml penicillin/streptomycin are added. The 4T1 cells were introduced into this culture medium.
(§3) 96-well plates were seeded with 2000 4T1 cells per well. After 72 hours (h) of culture under normal condition, i.e. in an incubator at 37° C. at […], the 4T1 cells were treated for 48 h with DX101, DX103, DX111, DX123, DX125, DX127 and DX129 at 100 nM, 1 μM, 2.5 μM and 10 μM. A control condition (CTL) is also performed in parallel using the previously described protocol without treatment with the molecules DX101, DX103, DX111, DX123, DX125, DX127 or DX129.
(§4) The cell viability is measured by three different methods. For the first method, MTT labeling is performed at 48 hours. This test is based on the use of the tetrazolium salt MTT (3-(4,5-dimethylthiazol-2-yl)-2,5-diphenyltetrazolium bromide). Tetrazolium is reduced by mitochondrial succinate dehydrogenase in active live cells to formazan, a purple colored precipitate. The amount of precipitate formed is proportional to the amount of live cells but also to the metabolic activity of each cell. Thus, a simple determination of the optical density at 550 nm by spectroscopy makes it possible to determine the relative amount of live and metabolically active cells. After 48 hours, the medium is aspirated, and the cells are incubated with MTT (0.5 mg/ml in culture medium) for about 3 hours. The MTT solution is aspirated and the purple crystals are dissolved in dimethyl sulfoxide (DMSO). The OD (optical density) is measured at 550 nm. The percentage of viability is then determined in each well against the CTL and the IC50 (concentration at which 50% of cells remain alive) is determined for each molecule with the Prism software using a nonlinear regression curve (log(inhibitor) vs. Response).

Series [3] has as its system murine 4T1 mammary tumor cells. The series can be described thus: Cell viability of 4T1 cells, LDH. Format: cell-based. The following applies: Mus musculus, 4T1, LDH, 48 h. As to the method: as §1, §2, §3
For the second method, the percentage of viability is determined by assaying the activity of the enzyme LDH (lactate dehydrogenase) in cell supernatants using the non radioactive cytotoxicity assay kit (Promega). LDH is an enzyme released in the supernatant of dead cells. The higher the LDH activity in the supernatant, the greater the cell death. In this enzyme assay, the LDH released converts a violet tetrazolium salt to a red colored formazan, absorbing at 490 nm. The intensity of the red color is proportional to the number of dead cells. After 48 h of treatment, the supernatants are transferred to a new 96-well plate and incubated for 30 minutes in the presence of substrate mix at room temperature. The reaction is stopped with stop solution reagent and the absorbance is determined at 490 nm. The percentage of cell death is determined here using a 100% maximum LDH activity control (made from untreated cells incubated in the presence of lysis solution for 45 minutes at 37° C. just prior to addition of the substrate mix), and the cell viability in each well is then deduced from this percentage. The IC50 is then determined as explained in the preceding paragraph.

For series [4], the system named is murine 4T1 mammary tumor cells. In words: Cell viability of 4T1 cells, CellTox Green Cytotoxicity Assay. Format: cell-based. As to conditions: Mus musculus, 4T1, Green Cytotoxicity Assay, 48 h. As for the experimental part:
as §1, §2, §3
For the third method, the percentage viability is determined using the CellTox Green Cytotoxicity Assay kit (Promega). This assay measures cell death via a change in membrane integrity. […] Consequently, the higher the fluorescence in the wells, the greater the cell death. […] The percentage of cell death is determined using the 100% cell death control (made from untreated cells incubated in the presence of the lysis solution for 30 minutes at 37° C. prior to the addition of Celltox green reagent), and the cell viability in each well is then deduced from this percentage. The IC50 is then determined as explained previously.

In series [5] the test system is BT-474 human mammary tumor cells. In words: Cell viability of BT-474 cells, MTT. Format: cell-based. As to conditions: for Mean LogIC50 (±SEM) / IC50: BT-474, MTT, 48 h; for Mean LogIC50 (±SEM): log of IC50 in μM; for activity compared with DX101: BT-474, Tables 2a, 2b and 2c (MTT, LDH, Trypan Blue); for IC50: Homo sapiens. As for the experimental part: as §4
(§5) Cell viability tests were also performed on BT-474 human mammary tumor cells (characterized as triple positive HER2+, ER+, PR+). The BT-474 cells were in a cell culture medium identical to the previous example and seeded in 24-well plates at 70 000 cells per well for cell viability determination using trypan blue, or in 96-well plates at 13 000 cells per well for cell viability determination using the MTT or LDH assay. After 96 hours (h) of culture under normal conditions, i.e. in an incubator at 37° C. with […], BT-474 cells were treated for 48 h with DX101, DX103, DX105, DX111, DX123 and DX127 at 100 nM, 1 μM, 2.5 μM and 10 μM. A control is also performed using the protocol described previously without treatment with DX101, DX103, DX105, DX111, DX123 and DX127.
(§6) After a 10-minute trypsin digestion at 37° C., the cell survival was also quantified by means of a trypan blue test with automatic counting using the Biorad TC20 machine (TC20™ Automated Cell Counter). The trypan blue test is based on the integrity of cell membranes, which is disrupted in the dead cells. Trypan blue stains dead cells blue. The Biorad TC20 cell counter counts the proportion of blue and non-blue cells, and reports the percentage of cells. The percentage of viability is then determined in each well relative to the untreated cells and the IC50 is determined as explained in the preceding example. Also, the percentage viability of the BT-474 cells was determined using the MTT and LDH assay, performed as described in the preceding example.

Series [6] has the same test system. The series can be described thus: Cell viability of BT-474 cells, trypan blue. The following applies: BT-474, Trypan Blue, 48 h; for Mean LogIC50 (±SEM): log of IC50 in μM; for IC50: Homo sapiens. Format: cell-based. As to the method:
as §5, §6

[7] abbreviates: log of IC50 in μM, read-out: Mean LogIC50 (±SEM) (converted).

Structures are written as SMILES. A value given as a limit tells only on which side of the number the result lay.

In the case of `CO[C@H]1CC[C@]2(C)[C@H]3CC[C@]4(C)[C@@H]([C@H](C)CCCC(C)C)CC[C@H]4[C@@H]3C[C@@H](NCCc3c[nH]cn3)[C@@]2(O)C1` [DX103, 3β-methoxy-5α-hydroxy-6β-[2-(1H-imidazol-4-yl)ethylamino]cholestane], in series [1], the “Area under the curve” value is listed as 105351. This molecule also came in with a Max concentration in series [1] of 135 nM. Further, the “Time for Cmax” value in series [1] is 240 min. Also, the “bioavailability / extent of absorption compared with DX101” value in series [1] was “slightly lower bioavailability”. Moreover, in series [1], the “speed of absorption compared with DX101” value is “faster absorption”. In addition, the IC50 in series [2] (setting [7]) is 3.16 µM; in series [2] (read-out: IC50), 3.16 µM; in series [3] (setting [7]), 4.37 µM; in series [3] (read-out: IC50) it was 4.4 µM; in series [4] (setting [7]), 2.63 µM; in series [4] (read-out: IC50) it was 2.63 µM. The IC50 in series [5] was found to be 7.08 µM; in series [6], 2.62 µM. The “Mean LogIC50 (±SEM)” value in series [5] is listed as 0.85 ± 0.05; in series [6], 0.42 ± 0.25. Moreover, in series [5], the “activity compared with DX101” value is recorded as “similar”.
Consider `CCO[C@H]1CC[C@]2(C)[C@H]3CC[C@]4(C)[C@@H]([C@H](C)CCCC(C)C)CC[C@H]4[C@@H]3C[C@@H](NCCc3c[nH]cn3)[C@@]2(O)C1` [DX105, 3β-ethoxy-5α-hydroxy-6β-[2-(1H-imidazol-4-yl)ethylamino]cholestane], for which, in series [1], the “Area under the curve” value was found to be 145590, the Max concentration came out at 197 nM, the “Time for Cmax” value came out at 240 min and the “bioavailability / extent of absorption compared with DX101” value was “equivalent to (or even slightly higher than)”. In addition, in series [1], the “maximum concentration compared with DX101” value was “much higher maximum concentration” and the “speed of absorption compared with DX101” value is reported as “much faster absorption”. For the same molecule, in series [5], the “Mean LogIC50 (±SEM)” value came out at 0.86 ± 0.04, the “activity compared with DX101” value is “similar” and the IC50 was determined as 4.08 µM. For the same molecule, in series [6], the “Mean LogIC50 (±SEM)” value is 0.55 ± 0.14 and the IC50 was found to be 3.57 µM.
With `CCCCCCCCO[C@H]1CC[C@]2(C)[C@H]3CC[C@]4(C)[C@@H]([C@H](C)CCCC(C)C)CC[C@H]4[C@@H]3C[C@@H](NCCc3c[nH]cn3)[C@@]2(O)C1` [DX115, 3β-octanoxy-5α-hydroxy-6β-[2-(1H-imidazol-4-yl)ethylamino]cholestane], the IC50 is 37.2 µM in series [2] (setting [7]); over 10 µM in series [2] (read-out: IC50); 17.4 µM in series [3] (setting [7]); over 10 µM in series [3] (read-out: IC50); 25.1 µM in series [4] (setting [7]); over 10 µM in series [4] (read-out: IC50).
Take `CC(C)CCC[C@@H](C)[C@H]1CC[C@H]2[C@@H]3C[C@@H](NCCc4c[nH]cn4)[C@@]4(O)C[C@@H](N=[N+]=[N-])CC[C@]4(C)[C@H]3CC[C@]12C` [DX123, 3β-azido-5α-hydroxy-6β-[2-(1H-imidazol-4-yl)ethylamino]cholestane]: the “Area under the curve” value in series [1] is listed as 6711. Besides, the Max concentration in series [1] is listed as 721 nM. In addition, the “Time for Cmax” value in series [1] worked out at 4 min. In series [1], the “bioavailability / extent of absorption compared with DX101” value is “twofold higher bioavailability”. In series [2], the “cytotoxic activity compared with DX101” value was “tendency to be higher”. The IC50 in series [2] (setting [7]) is 5.89 µM; in series [2] (read-out: IC50), 5.94 µM; in series [3] (setting [7]), 1.45 µM; in series [3] (read-out: IC50) it was 1.45 µM; in series [4] (setting [7]), 2.09 µM; in series [4] (read-out: IC50) it was over 10 µM. Besides, the “activity compared with DX101” value in series [5] was “tends to be superior”.
For `CC(C)CCC[C@@H](C)[C@H]1CC[C@H]2[C@@H]3C[C@@H](NCCc4c[nH]cn4)[C@@]4(O)C[C@@H](N)CC[C@]4(C)[C@H]3CC[C@]12C` [DX125, 3β-amino-5α-hydroxy-6β-[2-(1H-imidazol-4-yl)ethylamino]cholestane], the “cytotoxic activity compared with DX101” value in series [2] was “lower”. The IC50 is 145 µM in series [2] (setting [7]); over 10 µM in series [2] (read-out: IC50); 36.3 µM in series [3] (setting [7]); over 10 µM in series [3] (read-out: IC50); 22.4 µM in series [4] (setting [7]); over 10 µM in series [4] (read-out: IC50).
`CC(=O)N[C@H]1CC[C@]2(C)[C@H]3CC[C@]4(C)[C@@H]([C@H](C)CCCC(C)C)CC[C@H]4[C@@H]3C[C@@H](NCCc3c[nH]cn3)[C@@]2(O)C1` [DX127, 3β-acetamido-5α-hydroxy-6β-[2-(1H-imidazol-4-yl)ethylamino]cholestane]: in series [2], the “cytotoxic activity compared with DX101” value is on record as “lower”. For the same molecule, the IC50 was 11.7 µM in series [2] (setting [7]); 11.7 µM in series [2] (read-out: IC50); 7.08 µM in series [3] (setting [7]); 7.09 µM in series [3] (read-out: IC50); 11 µM in series [4] (setting [7]); 10.9 µM in series [4] (read-out: IC50). Moreover, in series [5], the “activity compared with DX101” value is listed as “similar”.
For the molecule `CC(C)CCC[C@@H](C)[C@H]1CC[C@H]2[C@@H]3C[C@@H](NCCc4c[nH]cn4)[C@@]4(O)C[C@@H](S(C)(=O)=O)CC[C@]4(C)[C@H]3CC[C@]12C` [DX129, 3β-methylsulfonyl-5α-hydroxy-6β-[2-(1H-imidazol-4-yl)ethylamino]cholestane], the “cytotoxic activity compared with DX101” value in series [2] is listed as “lower”. Also, the IC50 in series [2] (setting [7]) is 15.1 µM; in series [2] (read-out: IC50), 15.1 µM; in series [3] (setting [7]) it was 3.89 µM; in series [3] (read-out: IC50) it was 3.87 µM; in series [4] (setting [7]) it was 16.2 µM; in series [4] (read-out: IC50), 16.2 µM.

These data come from US20230391817A1, “5ALPHA-HYDROXY-6BETA-[2-(1-H-IMIDAZOL-4-YL)-ETHYLAMINO]-CHOLESTAN-3BETA-OL ANALOGUES AND PHARMACEUTICAL COMPOSITIONS COMPRISING SAME FOR USE IN THE TREATMENT OF CANCER” (priority 2020, published 2023).
